Assay results from US7652005B2, “Tricyclic δ-opioid modulators” (Janssen Pharmaceutica N.V., priority 2004, dated 2010).

Tests used:
mu opioid receptor = target: T1, mu opioid receptor (Rattus norvegicus, UniProt P33535); test: Rat Brain Mu Opioid Receptor Binding Assay; conditions: rat forebrain membrane preparation; [3H]DAMGO, 25° C., 2.5 h
T1 construct: Following incubation with the mu selective peptide ligand, ˜0.8 nM [^3H]DAMGO; from tissue; host or cells: rat forebrain homogenate (male Wistar rats), particulate membrane preparation
T1 sequence (P33535 whole entry): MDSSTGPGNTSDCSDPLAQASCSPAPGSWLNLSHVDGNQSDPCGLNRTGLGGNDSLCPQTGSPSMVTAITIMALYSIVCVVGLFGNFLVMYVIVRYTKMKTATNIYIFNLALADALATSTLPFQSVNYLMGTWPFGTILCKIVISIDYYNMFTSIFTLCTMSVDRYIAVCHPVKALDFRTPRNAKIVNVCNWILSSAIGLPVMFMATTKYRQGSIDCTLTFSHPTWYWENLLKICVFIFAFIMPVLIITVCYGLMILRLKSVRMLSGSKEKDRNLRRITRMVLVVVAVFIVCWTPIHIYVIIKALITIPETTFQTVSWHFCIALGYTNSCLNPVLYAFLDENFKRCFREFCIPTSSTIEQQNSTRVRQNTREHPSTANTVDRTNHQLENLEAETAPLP

delta opioid receptor = target: T2, delta opioid receptor (Rattus norvegicus, UniProt P33533); test: Rat Brain Delta Opioid Receptor Binding Assay; conditions: rat forebrain membrane preparation; [3H]DPDPE or [3H]naltrindole, 25° C., 2.5 h
T2 construct: from tissue; host or cells: rat forebrain homogenate (male Wistar rats), particulate membrane preparation
T2 sequence (P33533 whole entry): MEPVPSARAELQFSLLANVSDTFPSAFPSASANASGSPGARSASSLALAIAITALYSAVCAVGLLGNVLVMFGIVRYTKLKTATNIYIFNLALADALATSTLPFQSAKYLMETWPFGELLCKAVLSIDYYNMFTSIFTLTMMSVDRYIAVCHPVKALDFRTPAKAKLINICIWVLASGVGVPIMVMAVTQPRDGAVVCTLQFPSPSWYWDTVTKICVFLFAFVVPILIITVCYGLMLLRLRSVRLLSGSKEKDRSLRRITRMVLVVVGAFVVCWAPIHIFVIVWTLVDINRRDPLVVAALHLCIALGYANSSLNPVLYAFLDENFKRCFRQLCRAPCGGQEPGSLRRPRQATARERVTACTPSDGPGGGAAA

## CN1C2CCC1CC(N1c3ccccc3Oc3cc(-c4noc(=O)[nH]4)ccc31)C2 (stereo not drawn) [Compound 2h, 3-[10-(8-Methyl-8-aza-bicyclo[3.2.1]oct-3-yl)-10H-phenoxazin-3-yl]-4H-[1,2,4]oxadiazol-5-one]
Mu opioid receptor
  Ki: 2.89 µM
Delta opioid receptor
  Ki: 0.598 µM

## c1ccc(CCN2[C@@H]3CC[C@H]2CC(N2c4ccccc4Oc4cc(-c5nnn[nH]5)ccc42)C3)cc1 (stereo partly drawn) [Compound 7b, Endo-10-(8-Phenethyl-8-aza-bicyclo[3.2.1]oct-3-yl)-3-(1H-tetrazol-5-yl)-10H-phenoxazine]
Mu opioid receptor
  Ki: 0.288 µM
Delta opioid receptor
  Ki: 5.48 µM

## CC(=O)Nc1ccccc1-c1ccc2c(c1)Sc1ccccc1N2C1C[C@H]2CC[C@@H](C1)N2CCc1ccccc1 (mixture of isomers) [Compound 14i, N-{2-[10-(8-Phenethyl-8-aza-bicyclo[3.2.1]oct-3-yl)-10H-phenothiazin-3-yl]-phenyl}-acetamide]
Mu opioid receptor
  Ki: 0.599 µM
Delta opioid receptor
  Ki: 1.6 µM

## c1cncc(-c2ccc3c(c2)Sc2ccccc2N3C2C[C@H]3CC[C@@H](C2)N3Cc2ccoc2)c1 (mixture of isomers) [Compound 6i, 10-(8-Furan-3-ylmethyl-8-aza-bicyclo[3.2.1]oct-3-yl)-3-pyridin-3-yl-10H-phenothiazine]
Mu opioid receptor
  Ki: 1.06 µM
Delta opioid receptor
  Ki: 0.282 µM

## O=c1[nH]c(-c2ccc3c(c2)Oc2ccccc2N3[C@H]2C[C@H]3CC[C@@H](C2)N3CCc2ccccc2)no1 [Compound 7d, Endo-3-[10-(8-Phenethyl-8-aza-bicyclo[3.2.1]oct-3-yl)-10H-phenoxazin-3-yl]-4H-[1,2,4]oxadiazol-5-one]
Mu opioid receptor
  Ki: 0.123 µM
Delta opioid receptor
  Ki: 2.63 µM

## CC(C)=CCN1[C@@H]2CC[C@H]1CC(N1c3ccccc3Sc3cc(-c4ccncc4)ccc31)C2 (mixture of isomers) [Compound 10i, 10-[8-(3-Methyl-but-2-enyl)-8-aza-bicyclo[3.2.1]oct-3-yl]-3-pyridin-4-yl-10H-phenothiazine]
Mu opioid receptor
  Ki: 0.317 µM
Delta opioid receptor
  Ki: 0.949 µM
